Data: paper PMC9886550, “Molecular mechanism of topoisomerase poisoning by the peptide antibiotic albicidin” (Nature Catalysis, 2023)

Legend:
E. coli gyrase GyrA^D72N = biological target: T1, E. coli gyrase GyrA^D72N (Escherichia coli, UniProt P0AES4+P0AES6); assay type: biochemical; settings: in words
T1 construct: alternative cryo-EM approach involving full-length E. coli gyrase; 10-His (cleaved yes); Twin-Strep (cleaved yes); made in house
Experimental: (§1) For DNA gyrase supercoiling assays to characterize gyrase mutants, 15 µl reactions were set up containing 250 ng of relaxed DNA, E. coli gyrase supercoiling buffer (35 mM Tris–Cl pH 7.5, 24 mM KCl, 4 mM MgCl2, 2 mM DTT, 1.8 mM spermidine, 1 mM ATP, 6.0% (w/v) glycerol, and 0.1 mg ml^−1 BSA), gyrase subunits and inhibitors. Concentrations of enzyme and inhibitor are stated in the figure legends. Inhibitors were diluted in the following way to reduce the chance of precipitation: stock compound in 100% DMSO was diluted to 5 mM in 100% DMSO. This compound solution was diluted to 1 mM by stepwise addition of 1 µl of 50% DMSO with thorough mixing via pipetting after each addition. All subsequent dilutions up to 100 µM were performed in the same way using H2O. After this point, compounds were stable and could be diluted in the normal way. Reactions were incubated at 37 °C for 30 min before stopping with 15 µl chloroform:isoamyl alcohol (24:1 v/v) and 15 µl of STEB (40% (w/v) sucrose, 100 mM Tris–Cl pH 8, 10 mM EDTA, 0.5 mg ml^−1 bromophenol blue).
Cleavage assays were set up in the same way as supercoiling assays with some modifications. The concentration of enzyme was increased 4-fold relative to the supercoiling assay and reactions were incubated for 1 h before addition of 0.2% SDS and proteinase K (0.2 mg ml^−1) and further incubation at 37 °C for 30 min to trap cleavage complexes. […]

E. coli gyrase GyrA^I74M = biological target: T2, E. coli gyrase GyrA^I74M (Escherichia coli, UniProt P0AES4+P0AES6, I74M); assay: DNA gyrase cleavage assay (CC50, % cleaved DNA); assay type: biochemical; settings: for % maximal cleavage: GyrAI74M, average of 3 independent assays; for EC50: GyrA^I74M, mean ± s.d. of triplicate; for % cleaved DNA Average: average of replicates
T2 construct: alternative cryo-EM approach involving full-length E. coli gyrase; 10-His (cleaved yes); Twin-Strep (cleaved yes); made in house
Experimental: as §1
Cleavage assays were set up in the same way as supercoiling assays with some modifications. The concentration of enzyme was increased 4-fold relative to the supercoiling assay and reactions were incubated for 1 h before addition of 0.2% SDS and proteinase K (0.2 mg ml^−1) and further incubation at 37 °C for 30 min to trap cleavage complexes. Reactions were stopped in the same way as supercoiling assays.
Results were visualized by agarose gel electrophoresis: 1% agarose Tris-acetate-EDTA (TAE) gels were run without ethidium bromide (supercoiling) or with 10 µg ml^−1 ethidium bromide (cleavage) at 8 V cm^−1.
DNA cleavage gels were analysed using densitometry (ImageJ). Experiments were carried out in triplicate and expressed as mean ± s.d. Curves were fitted using OriginPro 2021 (Origin Lab) according to a modified Hill equation:1 y=cI+(cF−cI)[…]/(k^n+x^n) where y is the percentage of cleaved DNA, cI is the initial cleavage, cF is the final cleavage, k is the CC50 (the concentration of inhibitor that results in cleavage of 50% of DNA), n is a slope factor and x is the inhibitor concentration.

[1] = assay type: physicochemical; settings: 100 µM in Topo IV assays
Experimental: Supplementary Figure 11. Activity of albicidin and Albi-1/2/3 on E. coli topoisomerase IV. a. Plasmid relaxation activity of E. coli topo IV in the presence of albicidin, Albi-1, Albi-2 and Albi-3. First lane: negatively supercoiled pBR322; second lane: innate relaxation activity of E. coli topo IV (12.5 nM); third lane: effect of 20 µM CFX; subsequent lanes: effect of increasing compound concentration (0.1, 1, 10, 100 […]
higher concentration. b. Cleavage activity of E. coli topo IV in the presence of albicidin, Albi-1, Albi-2 and Albi-3. First lane: negatively supercoiled pBR322; second lane: innate cleavage activity of E. coli topo IV (15 nM); third lane: effect of 20 µM CFX; subsequent lanes: effect of increasing compound concentration (0.1, 1, 10, 100 µM). […]
concentration. All experiments were carried out in triplicates and representative gels […]
(1 picture or pasted object on this page, not shown here)

E. coli gyrase = biological target: T3, E. coli gyrase (Escherichia coli, UniProt P0AES4+P0AES6); assay: Gyrase cleavage of linear DNA fragments (Mu217 and others); assay type: biochemical; settings: 1 µM albicidin
T3 construct: alternative cryo-EM approach involving full-length E. coli gyrase; 10-His (cleaved yes); Twin-Strep (cleaved yes); made in house
Experimental: Mu217 DNA (25 nM) was incubated with 0.4 µM gyrase and indicated concentrations (1 or 10 µM) of diazirine-labelled albicidin (photo-Albi, φAlbi) in a volume of 20 µl (~70 ng DNA) at 37 °C for 30 min in gyrase cleavage buffer (see section 'Topoisomerase assays'). For CFX competition experiments, 30 µM CFX was added first, followed by the albicidin. Reactions were either irradiated with ultraviolet 365 nm (benchtop transilluminator) with cooling (ice) for 30 min or left on ice for 30 min (‘dark’). Then, 0.2% SDS and 0.2 mg ml^−1 proteinase K were added to both samples, which were incubated for another 30 min. Reactions were mixed with loading dye (STEB) and chloroform:isoamyl alcohol (24:1 v/v) before vortexing and centrifugation. The aqueous phase was loaded on 4–20% TBE (Tris–borate–EDTA) polyacrylamide gel (Thermo) and ran for 1 h at 150 V. DNA was visualized with SYBR Gold (Thermo) staining.
Extended Data Fig. 1 Length dependency of albicidin-mediated DNA cleavage. Position of cleaved DNA indicated by arrows and red dots. ATP and ADPNP were added as indicated, (----) stands for no nucleotide added. 20 nM gyrase, 1 µM albicidin and 25 nM DNA was used in each reaction.
Extended Data Fig. 5 Photocrosslinking of diazirine-labelled albicidin (photo-Albi) to the DNA. a. Structures of N-terminal photo-Albi and control compound. b. DNA cleavage assay with Mu217 fragment and indicated concentrations of compounds. The labelled DNA band appearing upon irradiation of a photo-compound when bound to the complex is marked by a yellow star. c. Ciprofloxacin competition experiment. Pre-incubation with excess CFX prevents albicidin binding and crosslinking. Details of the experiment are available in Methods section.

| Compound | resistance of the variant judged by the CC50 (E. coli gyrase GyrA^D72N) | % maximal cleavage (E. coli gyrase GyrA^I74M) [%] | EC50 (E. coli gyrase GyrA^I74M) [nM] | solubility in assay [1] | cleavage of DNA fragments (E. coli gyrase; fragments shorter than 150 bp or absence of a nucleotide) | cleavage of the 217 bp Mu SGS fragment (Mu217) (E. coli gyrase; in the presence of ATP or ADPNP) | reduction in the maximal amount of cleavage (E. coli gyrase GyrA^I74M; GyrA^I74M vs WT gyrase) | % cleaved DNA Average (E. coli gyrase GyrA^I74M; albicidin 0.0025 µM) [%] | % cleaved DNA Average (E. coli gyrase GyrA^I74M; albicidin 0.005 µM) [%] | % cleaved DNA Average (E. coli gyrase GyrA^I74M; albicidin 0.01 µM) [%] | % cleaved DNA Average (E. coli gyrase GyrA^I74M; albicidin 0.025 µM) [%] | % cleaved DNA Average (E. coli gyrase GyrA^I74M; albicidin 0.05 µM) [%] | % cleaved DNA Average (E. coli gyrase GyrA^I74M; albicidin 0.1 µM) [%] | % cleaved DNA Average (E. coli gyrase GyrA^I74M; albicidin 0.25 µM) [%] | % cleaved DNA Average (E. coli gyrase GyrA^I74M; albicidin 0.5 µM) [%] | % cleaved DNA Average (E. coli gyrase GyrA^I74M; albicidin 1 µM) [%] |
| --- | --- | --- | --- | --- | --- | --- | --- | --- | --- | --- | --- | --- | --- | --- | --- | --- |
| CC(C)Oc1c(NC(=O)c2ccc(NC(=O)[C@H](Cc3c[nH]nn3)NC(=O)c3ccc(NC(=O)c4ccc(C#N)cc4)cn3)cn2)ccc(C(=O)Nc2ccc(C(=O)O)cc2)c1O [Albi-1] | did not show increased resistance | 79±5 | 30 ± 2.7 | – | – | – | – | – | – | – | – | – | – | – | – | – |
| COc1c(NC(=O)c2ccc(NC(=O)c3ccc(NC(=O)[C@H](Cc4c[nH]nn4)NC(=O)c4ccc(NC(=O)c5ccc6nc(C)ccc6c5)cc4)cn3)c(OC)c2O)ccc(C(=O)O)c1O [Albi-3] | – | – | – | solubility issues | – | – | – | – | – | – | – | – | – | – | – | – |
| COc1c(NC(=O)c2ccc(NC(=O)c3ccc(NC(=O)[C@H](CC#N)NC(=O)c4ccc(NC(=O)/C(C)=C/c5ccc(O)cc5)cc4)cc3)c(OC)c2O)ccc(C(=O)O)c1O [Albicidin] | did not show increased resistance | 40±10 | 42 ± 7.7 | – | almost no cleavage | strong cleavage | ~ 2 fold | 2.868 | 1.835 | 6.013 | 10.9112 | 19.5143 | 32.1987 | 36.304 | 39.8221 | 36.4081 |
